Row | melting point [°C] | Compound
1 | > 250 | Cc1c(C#N)sc2nc(-c3ccncc3)nc(N3CCOCC3)c12 [Example 41, 5-Methyl-4-morpholin-4-yl-2-pyridin-4-ylthieno[2,3-d]pyrimidine-6-carbonitrile]
2 | 134 to 137 | CCC(C)Nc1nc(Cc2cc(OC)c(OC)c(OC)c2)nc2sc(C#N)c(C)c12 (stereo not drawn) [Example 114, 4-(sec-Butylamino)-5-methyl-2-(3,4,5-trimethoxybenzyl)thieno[2,3-d]pyrimidine-6-carbonitrile]
3 | 210 to 212 | COc1ccc(-c2nc(N3CCNCC3)c3c(C)c(C#N)sc3n2)cc1 [Example 12, 2-(4-Methoxyphenyl)-5-methyl-4-piperazin-1-ylthieno[2,3-d]pyrimidine-6-carbonitrile]
4 | 127 to 129 | CCC(CC)Nc1nc(Cc2cc(OC)c(OC)c(OC)c2)nc2sc(C#N)c(C)c12 [Example 115, 4-[(1-Ethylpropyl)amino]-5-methyl-2-(3,4,5-trimethoxybenzyl)thieno[2,3-d]pyrimidine-6-carbonitrile]
5 | 164 to 166 | COc1cc(-c2nc(N(C)CCO)c3c(C)c(C#N)sc3n2)cc(OC)c1OC [Example 52, 4-[(2-Hydroxy-ethyl)-methyl-amino]-5-methyl-2-(3,4,5-trimethoxy-phenyl)-thieno[2,3-d]pyrimidine-6-carbonitrile]
6 | 154 to 156 | CCN(CC)c1nc(-c2ccc(OC)cc2)nc2sc(C#N)c(C)c12 [Example 10, 4-(Diethylamino)-2-(4-methoxyphenyl)-5-methylthieno[2,3-d]pyrimidine-6-carbonitrile]
7 | 96 to 98 | CCCCN(CCCC)c1nc(-c2ccc(OC)cc2)nc2sc(C#N)c(C)c12 [Example 14, 4-(Dibutylamino)-2-(4-methoxyphenyl)-5-methylthieno[2,3-d]pyrimidine-6-carbonitrile]
8 | 126 to 128 | C=CCN(C)c1nc(-c2ccc(OC)cc2)nc2sc(C#N)c(C)c12 [Example 29, 4-[Allyl(methyl)amino]-2-(4-methoxyphenyl)-5-methylthieno[2,3-d]pyrimidine-6-carbonitrile]
9 | 143 to 147 | COc1cc(Cc2nc(NC(C)C)c3c(C)c(C#N)sc3n2)cc(OC)c1OC [Example 113, 4-(Isopropylamino)-5-methyl-2-(3,4,5-trimethoxybenzyl)thieno[2,3-d]pyrimidine-6-carbonitrile]
10 | 123 to 125 | COc1ccc(-c2nc(N(C)C)c3c(C)c(C#N)sc3n2)cc1 [Example 21, 4-(Dimethylamino)-2-(4-methoxyphenyl)-5-methylthieno[2,3-d]pyrimidine-6-carbonitrile]
11 | 98 to 100 | C=CCN(C)c1nc(Cc2ccc(OC)c(OC)c2)nc2sc(C#N)c(C)c12 [Example 102, 4-[Allyl(methyl)amino]-2-(3,4-dimethoxybenzyl)-5-methylthieno[2,3-d]pyrimidine-6-carbonitrile]
12 | 191 to 193 | COc1cc(-c2nc(NC(C)C)c3c(C)c(C#N)sc3n2)cc(OC)c1OC [Example 70, 4-(Isopropylamino)-5-methyl-2-(3,4,5-trimethoxyphenyl)thieno[2,3-d]pyrimidine-6-carbonitrile]
13 | 122 to 123 | CCN(C)c1nc(-c2ccc(OC)cc2)nc2sc(C#N)c(C)c12 [Example 17, 4-[Ethyl(methyl)amino]-2-(4-methoxyphenyl)-5-methylthieno[2,3-d]pyrimidine-6-carbonitrile]
14 | 144 to 146 | COc1ccc(-c2nc(N(C)CCO)c3c(C)c(C#N)sc3n2)cc1 [Example 25, 4-[(2-Hydroxyethyl)(methyl)amino]-2-(4-methoxyphenyl)-5-methylthieno[2,3-d]pyrimidine-6-carbonitrile]
15 | 67 to 70 | COc1ccc(Cc2nc(N3CCOCC3)c3c(C)c(C#N)sc3n2)cc1OC [Example 92, 2-(3,4-Dimethoxybenzyl)-5-methyl-4-morpholin-4-ylthieno[2,3-d]pyrimidine-6-carbonitrile]
16 | 62 to 63 | COc1ccc(Cc2nc(N(C)CCO)c3c(C)c(C#N)sc3n2)cc1OC [Example 105, 2-(3,4-Dimethoxybenzyl)-4-[(2-hydroxyethyl)(methyl)amino]-5-methylthieno[2,3-d]pyrimidine-6-carbonitrile]
17 | > 290 | COc1cc(-c2nc(N(C)CCN)c3c(C)c(C#N)sc3n2)cc(OC)c1OC [Example 86, 4-[(2-Aminoethyl)(methyl)amino]-5-methyl-2-(3,4,5-trimethoxyphenyl)thieno[2,3-d]pyrimidine-6-carbonitrile]
18 | > 250 | COc1ccc(-c2nc(N3CCN(C)CC3)c3c(C)c(C#N)sc3n2)cc1 [Example 9, 2-(4-Methoxyphenyl)-5-methyl-4-(4-methylpiperazin-1-yl)thieno[2,3-d]pyrimidine-6-carbonitrile]

Row | melting point [°C] | Compound
19 | 223 to 225 | Cc1c(C#N)sc2nc(-c3ccccc3)nc(N3CCN(C)CC3)c12 [Example 50, 5-Methyl-4-(4-methyl-piperazin-1-yl)-2-phenyl-thieno[2,3-d-]pyrimidine-6-carbonitrile]
20 | 179 to 181 | CCCNc1nc(-c2ccc(OC)c(OC)c2)nc2sc(C#N)c(C)c12 [Example 47, 2-(3,4-Dimethoxyphenyl)-5-methyl-4-(propylamino)thieno[2,3-d]pyrimidine-6-carbonitrile]
21 | 236 to 240 | COc1cc(-c2nc(-n3cncn3)c3c(C)c(C#N)sc3n2)cc(OC)c1OC [Example 91, 5-Methyl-4-(1H-1,2,4-triazol-1-yl)-2-(3,4,5-trimethoxyphenyl)thieno[2,3-d]pyrimidine-6-carbonitrile]
22 | 178 to 179 | CCN1CCN(c2nc(-c3ccccc3)nc3sc(C#N)c(C)c23)CC1 [Example 1, 4-(4-Ethylpiperazin-1-yl)-5-methyl-2-phenylthieno[2,3-d]pyrimidine-6-carbonitrile]
23 | 145 to 148 | CCN(C)c1nc(-c2cc(OC)cc(OC)c2)nc2sc(C#N)c(C)c12 [Example 55, 2-(3,5-Dimethoxy-phenyl)-4-(ethyl-methyl-amino)-5-methyl-thieno[2,3-d]pyrimidine-6-carbonitrile]
24 | 211 to 213 | COc1cc(-c2nc(N3CCN(C(C)=O)CC3)c3c(C)c(C#N)sc3n2)cc(OC)c1OC [Example 85, 4-(4-Acetylpiperazin-1-yl)-5-methyl-2-(3,4,5-trimethoxyphenyl)thieno[2,3-d]pyrimidine-6-carbonitrile]
25 | 209 to 210 | Cc1c(C#N)sc2nc(-c3ccc(Cl)cc3)nc(N3CCN(C)CC3)c12 [Example 15, 2-(4-Chlorophenyl)-5-methyl-4-(4-methylpiperazin-1-yl)thieno[2,3-d]pyrimidine-6-carbonitrile]
26 | 161 to 163 | CNc1nc(Cc2ccc(OC)c(OC)c2)nc2sc(C#N)c(C)c12 [Example 94, 2-(3,4-Dimethoxybenzyl)-5-methyl-4-(methylamino)thieno[2,3-d]pyrimidine-6-carbonitrile]
27 | 187 to 189 | Cc1c(C#N)sc2nc(-c3ccc(C(F)(F)F)cc3)nc(N3CCN(C)CC3)c12 [Example 33, 5-Methyl-4-(4-methylpiperazin-1-yl)-2-[4-(trifluoromethyl)phenyl]thieno[2,3-d]pyrimidine-6-carbonitrile]
28 | 251 to 253 | Cc1c(C#N)sc2nc(-c3ccccc3)nc(N3CCNCC3)c12 [Example 8, 5-Methyl-2-phenyl-4-piperazin-1-ylthieno[2,3-d]pyrimidine-6-carbonitrile]
29 | 163 to 164 | CCN(C)c1nc(-c2cc(OC)c(OC)c(OC)c2)nc2sc(C#N)c(C)c12 [Example 39, 4-[Ethyl(methyl)amino]-5-methyl-2-(3,4,5-trimethoxyphenyl)thieno[2,3-d]pyrimidine-6-carbonitrile]
30 | 195 to 197 | Cc1c(C#N)sc2nc(-c3ccc4c(c3)OCO4)nc(N(C)CCO)c12 [Example 43, 2-(1,3-Benzodioxol-5-yl)-4-[(2-hydroxyethyl)(methyl)amino]-5-methylthieno[2,3-d]pyrimidine-6-carbonitrile]
31 | 192 to 194 | CCCCNc1nc(-c2cc(OC)c(OC)c(OC)c2)nc2sc(C#N)c(C)c12 [Example 69, 4-(Butylamino)-5-methyl-2-(3,4,5-trimethoxyphenyl)thieno[2,3-d]pyrimidine-6-carbonitrile]
32 | 125 to 127 | COc1cc(-c2nc(N(C)CCN(C)C)c3c(C)c(C#N)sc3n2)cc(OC)c1OC [Example 107, 4-[[2-(Dimethylamino)ethyl](methyl)amino]-5-methyl-2-(3,4,5-trimethoxyphenyl) thieno[2,3-d]pyrimidine-6-carbonitrile]
33 | 142 to 144 | Cc1c(C#N)sc2nc(-c3ccccc3)nc(N3CCCCC3)c12 [Example 4, 5-Methyl-2-phenyl-4-piperidin-1-ylthieno[2,3-d]pyrimidine-6-carbonitrile]
34 | 153 to 155 | Cc1c(C#N)sc2nc(CCc3ccccc3)nc(NC3CCC3)c12 [Example 128, 4-(Cyclobutylamino)-5-methyl-2-(2-phenylethyl)thieno[2,3-d]pyrimidine-6-carbonitrile]
35 | 162 to 164 | CCN(C)c1nc(-c2ccncc2)nc2sc(C#N)c(C)c12 [Example 38, 4-[Ethyl(methyl)amino]-5-methyl-2-pyridin-4-ylthieno[2,3-d]pyrimidine-6-carbonitrile]
36 | 169 to 171 | CCN(CC)c1nc(-c2ccncc2)nc2sc(C#N)c(C)c12 [Example 45, 4-(Diethylamino)-5-methyl-2-pyridin-4-ylthieno[2,3-d]pyrimidine-6-carbonitrile]

Reference: US7662814B2, “4-aminothieno[2,3-d]pyrimidine-6-carbonitrile derivatives as PDE7 inhibitors” (Laboratorios Almirall, S.A., priority 2003, dated 2010)
